Laboratory results reported in patent publication US9605023B2, “Application of SP peptide or derivative thereof in preparing medicines for preventing or treating asthma” (priority 2012, dated 2017).
Where no end group is shown, it is not given here.

Experiments:
[1] = system: r-IFN, IL-4 and IL-10; conditions: disclosed in CN1194986C and CN1216075C; cited from earlier work
[2] = system: TNF-α; conditions: pneumonia; recorded in CN101822816A; cited from earlier work
[3] = system: IL-13; assay: IL-13 level (ELISA) in serum and lung tissue homogenates of allergic asthma mice induced by ovalbumin and aluminium hydroxide; assay type: in vivo, mouse; conditions: compared to model group
[4] = system: IL-4; assay: IL-4 level (ELISA) in serum and lung tissue homogenates of allergic asthma mice induced by ovalbumin and aluminium hydroxide; assay type: in vivo, mouse
Method: (§1) ICR mice, half male and half female, are divided randomly into 9 groups with each group having 10 mice, that is:
(§2) 3) positive medicines group (administer an equal volume of dexamethasone injection solution with the model group, having the dosage of 0.9 μg/kg·d);
(§3) 4) SP peptide high-dosage preventive administration group, 5) SP peptide medium-dosage preventive administration group, and 6) SP peptide low-dosage preventive administration group (administer ovalbumin and aluminium hydroxide, and the SP peptides with a respective dosage of 250 μg/kg·d, 125 μg/kg·d and 62.5 μg/kg·d prepared into an SP peptide solution of a desired concentration with physiological saline).
(§4) 7) SP peptide high-dosage treatment administrative group, 8) SP peptide medium-dosage treatment administration group, and 9) SP peptide low-dosage treatment administration group (administer ovalbumin and aluminium hydroxide, and the SP peptides with a respective dosage of 250 μg/kg·d, 125 μg/kg·d and 62.5 μg/kg·d prepared into an SP peptide solution of a desired concentration with physiological saline).
(§5) All dosage groups of the SP peptide are administered by subcutaneous injection with a 0.1 ml SP peptide solution per 10 g weight of a mouse, the blank control group uses the same amount of physiological saline (0.1 ml physiological saline per 10 g weight of a mouse), and the positive medicines group is administered by intraperitoneal injection with 0.1 ml positive medicines per 10 g weight of a mouse.
(§6) Preparation of sensitized liquid: prepare in a proportion of dissolving 10 ug ovalbumin and 2 mg aluminium hydroxide in 0.5 ml physiological saline, and use it right after being prepared.
(§7) On day 1, day 7 and day 14, the mice of all groups (the model group, the preventive administration groups, the treatment administration groups, and the positive medicines group) apart from the blank control group are injected intraperitoneally with 0.5 ml freshly prepared sensitized liquid. The blank control group is injected intraperitoneally with an equal volume of physiological saline.
(§8) Since day 21 (i.e., starting from week 4), the mice of all groups apart from the blank control group are placed in a 16 L closed container every fourth days, make the mice inhale 1 wt % ovalbumin physiological saline by ultrasonic nebulization, with an inhalation duration of 25 min/d and a nebulization flow rate of 3 ml/min, for twice a week to induce asthma, and the process continues until week 19. The mice in the blank control group undergo nebulization […] with an equal volume of physiological saline.
(§9) Particularly, the preventive administration group (the SP peptide high-dosage preventive administration group, SP peptide medium-dosage preventive administration group, and SP peptide low-dosage preventive administration group) are injected subcutaneously a corresponding dosage of SP peptide at right hindlimb of the mouse, one hour after the first intraperitoneal injection of the sensitized liquid (i.e., from day 1), and are administered every other day for 15 times in total.
(§10) From the same day, the mice in the treatment administration groups (SP high-dosage treatment administration group, SP medium-dosage treatment administration group, and SP low-dosage treatment administration group) are injected subcutaneously with a corresponding dosage of SP peptide at right hindlimb thereof, and are administered every other day for 15 times in total. From the same day, the mice in the positive medicines group are injected intraperitoneally with 0.1 ml dexamethasone injection per 10 g weight of a mouse, and are administered every other day for 15 times in total.
(§11) As for the determination of the experimental result, all mice are killed to obtain blood by picking off their eyeballs 6 hours after the final nebulization inhalation (week 19), and serum is collected and stored at −70° C. until needed. […]

[5] = system: allergic asthma mouse model; assay: Histopathologic examination and lesion score of lung tissues of allergic asthma mice induced by ovalbumin and aluminium hydroxide; assay type: in vivo
Method: as §1, §2, §5, §6, §7, §8, §9, §10
Lung tissue lesions (including bronchia and perivascular interstitial edema, alveolar wall congestion or emphysema) are marked respectively as 1, 2, 3 and 4 in ascending order of severity, 0 stands for no obvious lesions, and 0.5 for extreme mild lesions. All scores are accumulated, and a mean score (±SD) of each mouse in each group is calculated, and a higher score indicates a more severe level of lesions. Perform a rank-sum test to pathological score results to compare the two samples, and compare with the model group.
2.2 Data Processing: perform data processing to all data, rank-sum test to pathological score, t-test to the other data, and make statistics to analytic results.

[6] = system: IL-13; assay: IL-13 level (ELISA) in serum and lung tissue homogenates of allergic asthma mice induced by ovalbumin and aluminium hydroxide; assay type: in vivo, mouse; conditions: for IL-13 level in serums / IL-13 level in lung tissue homogenates: compared to model group
Method: as §1, §2, §3, §4, §5, §6, §7, §8, §9, §10, §11

[7] = all SP peptide high-/medium-/low-dosage preventive and treatment administration groups, compared to the model group (summary statement)
[8] = SP peptide high-dosage preventive administration group, 250 μg/kg·d s.c., FIG. 9
[9] = SP peptide high-dosage treatment administration group, 250 μg/kg·d s.c., FIG. 12
[10] = SP peptide low-dosage preventive administration group, 62.5 μg/kg·d s.c., FIG. 7
[11] = SP peptide low-dosage treatment administration group, 62.5 μg/kg·d s.c., FIG. 10
[12] = SP peptide medium-dosage preventive administration group, 125 μg/kg·d s.c., FIG. 8
[13] = SP peptide medium-dosage treatment administration group, 125 μg/kg·d s.c., FIG. 11
[14] = positive drug group, dexamethasone 0.9 μg/kg·d i.p. every other day x15 from week 15, FIG. 6

For GQTYTSG, the “level of cytokines r-IFN, IL-4 and IL-10” value [1] is listed as “increased level”, the TNF-α level [2] is listed as “reducing TNF-α level” and the “IL-13 level in serums” value ([3]; SP peptide high-dosage treatment administration group, 250 μg/kg·d s.c. every other day x15 from week 15) is listed as “significantly decreased”. The “IL-13 level in serums” value ([3]; SP peptide low-dosage treatment administration group, 62.5 μg/kg·d s.c. every other day x15 from week 15) was “significantly decreased”, the “IL-13 level in serums” value ([3]; SP peptide medium-dosage treatment administration group, 125 μg/kg·d s.c. every other day x15 from week 15) was “significantly decreased” and the IL-4 level ([4]; SP peptide high-dosage preventive administration group, 250 μg/kg·d s.c., compared to model group) was “significantly decreased”. The IL-4 level ([4]; SP peptide high-dosage treatment administration group, 250 μg/kg·d s.c., compared to model group) was “significantly decreased”, the IL-4 level ([4]; SP peptide low-dosage treatment administration group, 62.5 μg/kg·d s.c., compared to model group) was “significantly decreased” and the IL-4 level ([4]; SP peptide medium-dosage preventive administration group, 125 μg/kg·d s.c., compared to model group) was “significantly decreased”. For the same compound, the IL-4 level ([4]; SP peptide medium-dosage treatment administration group, 125 μg/kg·d s.c., compared to model group) was “significantly decreased”, the IL-4 level [4, 7] was “significantly reduced” and the “overall score of lung tissue lesion level, difference compared to the model group (rank-sum test)” value ([5]; SP peptide high-dosage preventive administration group, 250 μg/kg·d s.c., ** P<0.01, FIG. 3) was “highly significant differences”. For the same compound, the “inflammatory cells infiltration (lung tissue section)” value [5, 8] was “infiltration with a few inflammatory cells around bronchus”, the “pulmonary interstitial edema (lung tissue section)” value (“pulmonary interstitial edema” below) [5, 8] was “mild pulmonary interstitial edema” and the “overall score of lung tissue lesion level, difference compared to the model group (rank-sum test)” value ([5]; SP peptide high-dosage treatment administration group, 250 μg/kg·d s.c., ** P<0.01, FIG. 3) was “highly significant differences”. The “inflammatory cells infiltration (lung tissue section)” value [5, 9] was “infiltration with a few inflammatory cells”, the “pulmonary interstitial edema” value [5, 9] was “mild pulmonary interstitial edema” and the “overall score of lung tissue lesion level, difference compared to the model group (rank-sum test)” value ([5]; SP peptide low-dosage preventive administration group, 62.5 μg/kg·d s.c., * P<0.05, FIG. 3) was “significant differences”. For the same compound, the “inflammatory cells infiltration (lung tissue section)” value [5, 10] was “infiltration with greater inflammatory cells”, the “pulmonary interstitial edema” value [5, 10] was “moderate or severe pulmonary interstitial edema” and the “overall score of lung tissue lesion level, difference compared to the model group (rank-sum test)” value ([5]; SP peptide low-dosage treatment administration group, 62.5 μg/kg·d s.c., * P<0.05, FIG. 3) was “significant differences”. The “inflammatory cells infiltration (lung tissue section)” value [5, 11] was “infiltration with greater inflammatory cells”, the “pulmonary interstitial edema” value [5, 11] was “moderate intrapulmonary small perivascular and peribronchial pulmonary interstitial edema” and the “overall score of lung tissue lesion level, difference compared to the model group (rank-sum test)” value ([5]; SP peptide medium-dosage preventive administration group, 125 μg/kg·d s.c., * P<0.05, FIG. 3) was “significant differences”. For the same compound, the “inflammatory cells infiltration (lung tissue section)” value [5, 12] was “infiltration with a few inflammatory cells”, the “pulmonary interstitial edema” value [5, 12] was “moderate or mild pulmonary interstitial edema” and the “overall score of lung tissue lesion level, difference compared to the model group (rank-sum test)” value ([5]; SP peptide medium-dosage treatment administration group, 125 μg/kg·d s.c., ** P<0.01, FIG. 3) was “highly significant differences”. For the same compound, the “alveolar wall congestion or emphysema (lung tissue section)” value [5, 13] was “congestion around alveolar walls, alveoli are in an emphysematous state”, the “inflammatory cells infiltration (lung tissue section)” value [5, 13] was “infiltration with many inflammatory cells” and the “pulmonary interstitial edema” value [5, 13] was “mild intrapulmonary small perivascular and peribronchial pulmonary interstitial edema”. The “bronchia and perivascular interstitial edema, edematous inflammatory cells infiltration, alveolar wall congestion or emphysema” value ([5]; after administering SP peptide for prevention or treatment, histopathologic test, FIG. 3) was “significantly reduced”, the “lung tissue lesion level” value [5, 7] was “significantly alleviated” and the “asthma modelling by pathological check on day 1 of week 15” value ([5]; five mice drawn from each group, preventive administration groups (SP peptide 250, 125, 62.5 μg/kg·d s.c. from day 1, x15)) was “all asthma groups apart from the preventive administration groups are successfully modeled”. For the same compound, the “IL-13 level in serums” value ([6]; SP peptide high-dosage preventive administration group, 250 μg/kg·d s.c. every other day x15 from day 1) was “significantly decreased”, the “IL-13 level in lung tissue homogenates” value ([6]; SP peptide high-dosage preventive administration group, 250 μg/kg·d s.c.) was “significantly decreased” and the “IL-13 level in lung tissue homogenates” value ([6]; SP peptide high-dosage treatment administration group, 250 μg/kg·d s.c.) was “significantly decreased”. For the same compound, the “IL-13 level in lung tissue homogenates” value ([6]; SP peptide low-dosage treatment administration group, 62.5 μg/kg·d s.c.) was “significantly decreased”, the “IL-13 level in serums” value ([6]; SP peptide medium-dosage preventive administration group, 125 μg/kg·d s.c. every other day x15 from day 1) was “significantly decreased” and the “IL-13 level in lung tissue homogenates” value ([6]; SP peptide medium-dosage preventive administration group, 125 μg/kg·d s.c.) was “significantly decreased”. For the same compound, the “IL-13 level in lung tissue homogenates” value ([6]; SP peptide medium-dosage treatment administration group, 125 μg/kg·d s.c.) was “significantly decreased” and the IL-13 level [6, 7] was “significantly reduced”.
For C[C@@H]1C[C@H]2[C@@H]3CCC4=CC(=O)C=C[C@]4(C)[C@@]3(F)[C@@H](O)C[C@]2(C)[C@@]1(O)C(=O)CO [positive drug, dexamethasone, reference compound], the “inflammatory cells infiltration (lung tissue section)” value [5, 14] was “infiltration with a few inflammatory cells” and the “pulmonary interstitial edema” value [5, 14] was “mild pulmonary interstitial edema”.
